Measurements taken from ChEMBL document CHEMBL1201861, “Genomics of Drug Sensitity in Cancer screening data, Wellcome Trust Sanger Institute”.

Assays:
DBTRG-05MG = experiment: cells; format: functional, cell-based, Homo sapiens; settings: Homo sapiens, DBTRG-05MG
Description: SANGER: Inhibition of human DBTRG-05MG cell growth in a cell viability assay.

Daoy = experiment: cells; format: functional, cell-based, Homo sapiens; settings: Homo sapiens, Daoy
Description: SANGER: Inhibition of human Daoy cell growth in a cell viability assay.

GCT = experiment: cells; format: functional, cell-based, Homo sapiens; settings: Homo sapiens, GCT
Description: SANGER: Inhibition of human GCT cell growth in a cell viability assay.

GDM-1 = experiment: cells; format: functional, cell-based, Homo sapiens; settings: Homo sapiens, GDM-1
Description: SANGER: Inhibition of human GDM-1 cell growth in a cell viability assay.

KYSE-70 cell line = experiment: cells; format: functional, cell-based, Homo sapiens; settings: Homo sapiens, KYSE-70
Description: SANGER: Inhibition of human KYSE-70 cell growth in a cell viability assay.

L-540 = experiment: cells; format: functional, cell-based, Homo sapiens; settings: Homo sapiens, L-540
Description: SANGER: Inhibition of human L-540 cell growth in a cell viability assay.

LK-2 = experiment: cells; format: functional, cell-based, Homo sapiens; settings: Homo sapiens, LK-2
Description: SANGER: Inhibition of human LK-2 cell growth in a cell viability assay.

LU-165 = experiment: cells; format: functional, cell-based, Homo sapiens; settings: Homo sapiens, LU-165
Description: SANGER: Inhibition of human LU-165 cell growth in a cell viability assay.

LU-99A = experiment: cells; format: functional, cell-based, Homo sapiens; settings: Homo sapiens, LU-99A
Description: SANGER: Inhibition of human LU-99A cell growth in a cell viability assay.

M059J = experiment: cells; format: functional, cell-based, Homo sapiens; settings: Homo sapiens, M059J
Description: SANGER: Inhibition of human M059J cell growth in a cell viability assay.

MKN-28 = experiment: cells; format: functional, cell-based, Homo sapiens; settings: Homo sapiens, MKN-28
Description: SANGER: Inhibition of human MKN28 cell growth in a cell viability assay.

NCI-H1793 = experiment: cells; format: functional, cell-based, Homo sapiens; settings: Homo sapiens, NCI-H1793
Description: SANGER: Inhibition of human NCI-H1793 cell growth in a cell viability assay.

NCI-H187 = experiment: cells; format: functional, cell-based, Homo sapiens; settings: Homo sapiens, NCI-H187
Description: SANGER: Inhibition of human NCI-H187 cell growth in a cell viability assay.

NCI-H2030 = experiment: cells; format: functional, cell-based, Homo sapiens; settings: Homo sapiens, NCI-H2030
Description: SANGER: Inhibition of human NCI-H2030 cell growth in a cell viability assay.

NCI-H345 = experiment: cells; format: functional, cell-based, Homo sapiens; settings: Homo sapiens, NCI-H345
Description: SANGER: Inhibition of human NCI-H345 cell growth in a cell viability assay.

NCI-H460 = experiment: cells; format: functional, cell-based, Homo sapiens; settings: Homo sapiens, NCI-H460
Description: SANGER: Inhibition of human NCI-H460 cell growth in a cell viability assay.

NCI-H524 = experiment: cells; format: functional, cell-based, Homo sapiens; settings: Homo sapiens, NCI-H524
Description: SANGER: Inhibition of human NCI-H524 cell growth in a cell viability assay.

NCI-H650 = experiment: cells; format: functional, cell-based, Homo sapiens; settings: Homo sapiens, NCI-H650
Description: SANGER: Inhibition of human NCI-H650 cell growth in a cell viability assay.

OVCAR-5 = experiment: cells; format: functional, cell-based, Homo sapiens; settings: Homo sapiens, OVCAR-5
Description: SANGER: Inhibition of human OVCAR-5 cell growth in a cell viability assay.

PANC-03-27 = experiment: cells; format: functional, cell-based, Homo sapiens; settings: Homo sapiens, PANC-03-27
Description: SANGER: Inhibition of human PANC-03-27 cell growth in a cell viability assay.

RD = experiment: cells; format: functional, cell-based, Homo sapiens; settings: Homo sapiens, RD
Description: SANGER: Inhibition of human RD cell growth in a cell viability assay.

RL95-2 = experiment: cells; format: functional, cell-based; settings: Homo sapiens
Description: SANGER: Inhibition of human RL95-2 cell growth in a cell viability assay.

RPMI-6666 = experiment: cells; format: functional, cell-based, Homo sapiens; settings: Homo sapiens, RPMI-6666
Description: SANGER: Inhibition of human RPMI-6666 cell growth in a cell viability assay.

SCC-25 = experiment: cells; format: functional, cell-based, Homo sapiens; settings: Homo sapiens, SCC-25
Description: SANGER: Inhibition of human SCC-25 cell growth in a cell viability assay.

SCLC-21H = experiment: cells; format: functional, cell-based, Homo sapiens; settings: Homo sapiens, SCLC-21H
Description: SANGER: Inhibition of human SCLC-21H cell growth in a cell viability assay.

SIG-M5 = experiment: cells; format: functional, cell-based, Homo sapiens; settings: Homo sapiens, SIG-M5
Description: SANGER: Inhibition of human SIG-M5 cell growth in a cell viability assay.

SJRH30 = experiment: cells; format: functional, cell-based, Homo sapiens; settings: Homo sapiens, SJRH30
Description: SANGER: Inhibition of human SJRH30 cell growth in a cell viability assay.

SK-N-AS = experiment: cells; format: functional, cell-based, Homo sapiens; settings: Homo sapiens, SK-N-AS
Description: SANGER: Inhibition of human SK-N-AS cell growth in a cell viability assay.

SKG-IIIa = experiment: cells; format: functional, cell-based, Homo sapiens; settings: Homo sapiens, SKG-IIIa
Description: SANGER: Inhibition of human SKG-IIIa cell growth in a cell viability assay.

SW1088 = experiment: cells; format: functional, cell-based, Homo sapiens; settings: Homo sapiens, SW1088
Description: SANGER: Inhibition of human SW1088 cell growth in a cell viability assay.

SW13 = experiment: cells; format: functional, cell-based, Homo sapiens; settings: Homo sapiens, SW13
Description: SANGER: Inhibition of human SW13 cell growth in a cell viability assay.

SW626 = experiment: cells; format: functional, cell-based, Homo sapiens; settings: Homo sapiens, SW626
Description: SANGER: Inhibition of human SW626 cell growth in a cell viability assay.

SW780 = experiment: cells; format: functional, cell-based, Homo sapiens; settings: Homo sapiens, SW780
Description: SANGER: Inhibition of human SW780 cell growth in a cell viability assay.

T-24 = experiment: cells; format: functional, cell-based, Homo sapiens; settings: Homo sapiens, T-24
Description: SANGER: Inhibition of human T-24 cell growth in a cell viability assay.

A673 = experiment: cells; format: functional, cell-based, Homo sapiens; settings: Homo sapiens, A673
Description: SANGER: Inhibition of human A673 cell growth in a cell viability assay.

ARH-77 = experiment: cells; format: functional, cell-based, Homo sapiens; settings: Homo sapiens, ARH-77
Description: SANGER: Inhibition of human ARH-77 cell growth in a cell viability assay.

AU565 = experiment: cells; format: functional, cell-based, Homo sapiens; settings: Homo sapiens, AU565
Description: SANGER: Inhibition of human AU565 cell growth in a cell viability assay.

BC1 cell line = experiment: SANGER: Inhibition of human BC-1 cell growth in a cell viability assay.; format: functional, cell-based; settings: Homo sapiens, BC1
BC-3 = experiment: cells; format: functional, cell-based, Homo sapiens; settings: Homo sapiens, BC-3
Description: SANGER: Inhibition of human BC-3 cell growth in a cell viability assay.

BT-20 = experiment: cells; format: functional, cell-based, Homo sapiens; settings: Homo sapiens, BT-20
Description: SANGER: Inhibition of human BT-20 cell growth in a cell viability assay.

C3A = experiment: cells; format: functional, cell-based, Homo sapiens; settings: Homo sapiens, C3A
Description: SANGER: Inhibition of human C3A cell growth in a cell viability assay.

CAKI-1 = experiment: cells; format: functional, cell-based, Homo sapiens; settings: Homo sapiens, CAKI-1
Description: SANGER: Inhibition of human CAKI-1 cell growth in a cell viability assay.

CAL-12T = experiment: cells; format: functional, cell-based, Homo sapiens; settings: Homo sapiens, CAL-12T
Description: SANGER: Inhibition of human CAL-12T cell growth in a cell viability assay.

TE-15 = experiment: cells; format: functional, cell-based, Homo sapiens; settings: Homo sapiens, TE-15
Description: SANGER: Inhibition of human TE-15 cell growth in a cell viability assay.

U2OS = experiment: cells; format: functional, cell-based, Homo sapiens, U-2-OS; settings: Homo sapiens, U2OS
Description: SANGER: Inhibition of human U-2-OS cell growth in a cell viability assay.

U-251 = experiment: cells; format: functional, cell-based, Homo sapiens; settings: Homo sapiens, U-251
Description: SANGER: Inhibition of human U251 cell growth in a cell viability assay.

CMK = experiment: cells; format: functional, cell-based, Homo sapiens; settings: Homo sapiens, CMK
Description: SANGER: Inhibition of human CMK cell growth in a cell viability assay.

EW-22 = experiment: cells; format: functional, cell-based, Homo sapiens; settings: Homo sapiens, EW-22
Description: SANGER: Inhibition of human EW-22 cell growth in a cell viability assay.

## N#Cc1c(O)c2c(-c3ccc(-c4ccccc4O)cc3)csc2[nH]c1=O
DBTRG-05MG
  IC50: > 1.02 µM
Daoy
  IC50: > 1.02 µM
GCT
  IC50: > 1.02 µM
GDM-1
  IC50: 0.0255 µM
KYSE-70 cell line
  IC50: > 1.02 µM
L-540
  IC50: 0.848 µM
LK-2
  IC50: > 1.02 µM
LU-165
  IC50: > 1.02 µM
LU-99A
  IC50: > 1.02 µM
M059J
  IC50: > 1.02 µM
MKN-28
  IC50: > 1.02 µM
NCI-H1793
  IC50: > 1.02 µM
NCI-H187
  IC50: 0.545 µM
NCI-H2030
  IC50: > 1.02 µM
NCI-H345
  IC50: > 1.02 µM
NCI-H460
  IC50: > 1.02 µM
NCI-H524
  IC50: > 1.02 µM
NCI-H650
  IC50: > 1.02 µM
OVCAR-5
  IC50: > 1.02 µM
PANC-03-27
  IC50: > 1.02 µM
RD
  IC50: > 1.02 µM
RL95-2
  IC50: > 1.02 µM
RPMI-6666
  IC50: 0.068 µM
SCC-25
  IC50: > 1.02 µM
SCLC-21H
  IC50: > 1.02 µM
SIG-M5
  IC50: 0.00786 µM
SJRH30
  IC50: 0.495 µM
SK-N-AS
  IC50: > 1.02 µM
SKG-IIIa
  IC50: > 1.02 µM
SW1088
  IC50: > 1.02 µM
SW13
  IC50: > 1.02 µM
SW626
  IC50: > 1.02 µM
SW780
  IC50: > 1.02 µM
T-24
  IC50: > 1.02 µM
A673
  IC50: > 1.02 µM
ARH-77
  IC50: 0.141 µM
AU565
  IC50: > 1.02 µM
BC1 cell line
  IC50: 0.0697 µM
BC-3
  IC50: > 1.02 µM
BT-20
  IC50: > 1.02 µM
C3A
  IC50: > 1.02 µM
CAKI-1
  IC50: > 1.02 µM
CAL-12T
  IC50: > 1.02 µM
TE-15
  IC50: > 1.02 µM
U2OS
  IC50: > 1.02 µM
U-251
  IC50: > 1.02 µM
CMK
  IC50: 0.0022 µM

## COc1cc2ncn(-c3cc(OCc4ccccc4S(C)(=O)=O)c(C#N)s3)c2cc1OC [GSK-319347A]
EW-22
  IC50: > 5 µM
GDM-1
  IC50: > 5 µM
L-540
  IC50: > 5 µM
LU-165
  IC50: > 5 µM
NCI-H187
  IC50: > 5 µM
NCI-H345
  IC50: > 5 µM
NCI-H524
  IC50: > 5 µM
RL95-2
  IC50: > 5 µM
RPMI-6666
  IC50: > 5 µM
SCLC-21H
  IC50: > 5 µM
SIG-M5
  IC50: > 5 µM
ARH-77
  IC50: > 5 µM
BC1 cell line
  IC50: > 5 µM
BC-3
  IC50: > 5 µM
TE-15
  IC50: > 5 µM
CMK
  IC50: > 5 µM

## Cc1ccc(-c2c(C(=O)CCl)n(CCCO)c3ncnc(N)c23)cc1
GDM-1
  IC50: > 4 µM
L-540
  IC50: > 4 µM
LU-165
  IC50: > 4 µM
NCI-H187
  IC50: > 4 µM
NCI-H345
  IC50: > 4 µM
NCI-H524
  IC50: > 4 µM
RL95-2
  IC50: > 4 µM
RPMI-6666
  IC50: 2.33 µM
SCLC-21H
  IC50: > 4 µM
SIG-M5
  IC50: > 4 µM
ARH-77
  IC50: > 4 µM
BC1 cell line
  IC50: > 4 µM
BC-3
  IC50: > 4 µM
TE-15
  IC50: 1.82 µM
CMK
  IC50: > 4 µM

## OCCCNc1cc(-c2ccnc(Nc3cccc(Cl)c3)n2)ccn1
GDM-1
  IC50: > 0.256 µM
L-540
  IC50: 0.193 µM
LU-165
  IC50: > 0.256 µM
NCI-H187
  IC50: > 0.256 µM
NCI-H345
  IC50: > 0.256 µM
NCI-H524
  IC50: > 0.256 µM
RL95-2
  IC50: 0.177 µM
RPMI-6666
  IC50: 0.0504 µM
SCLC-21H
  IC50: > 0.256 µM
SIG-M5
  IC50: 0.0299 µM
ARH-77
  IC50: 0.0819 µM
BC1 cell line
  IC50: 0.0695 µM
BC-3
  IC50: 0.0766 µM
TE-15
  IC50: 0.0394 µM
CMK
  IC50: > 0.256 µM

## CC[C@H](CO)Nc1nc(NCc2ccccc2)c2ncn(C(C)C)c2n1 [SELICICLIB]
GDM-1
  IC50: > 16 µM
L-540
  IC50: > 16 µM
LU-165
  IC50: > 16 µM
NCI-H187
  IC50: > 16 µM
NCI-H345
  IC50: > 16 µM
NCI-H524
  IC50: > 16 µM
RL95-2
  IC50: > 16 µM
RPMI-6666
  IC50: 13.9 µM
SCLC-21H
  IC50: > 16 µM
SIG-M5
  IC50: > 16 µM
ARH-77
  IC50: > 16 µM
BC1 cell line
  IC50: > 16 µM
BC-3
  IC50: > 16 µM
TE-15
  IC50: > 16 µM
CMK
  IC50: > 16 µM

## COc1cc2ncn(-c3cc(OCc4ccccc4C(F)(F)F)c(C(N)=O)s3)c2cc1OC [GW843682X]
GDM-1
  IC50: 0.0508 µM
L-540
  IC50: 0.121 µM
LU-165
  IC50: > 0.256 µM
NCI-H187
  IC50: 0.0233 µM
NCI-H345
  IC50: > 0.256 µM
NCI-H524
  IC50: 0.0654 µM
RL95-2
  IC50: 0.0113 µM
RPMI-6666
  IC50: 0.0826 µM
SCLC-21H
  IC50: 0.0902 µM
SIG-M5
  IC50: 0.021 µM
ARH-77
  IC50: 0.0581 µM
BC1 cell line
  IC50: 0.244 µM
BC-3
  IC50: > 0.256 µM
TE-15
  IC50: 0.0108 µM
CMK
  IC50: 0.036 µM

## N[C@@H](CSC(c1ccccc1)(c1ccccc1)c1ccccc1)C(=O)O [S-TRITYL-L-CYSTEINE]
GDM-1
  IC50: 2.49 µM
L-540
  IC50: > 5.12 µM
LU-165
  IC50: > 5.12 µM
NCI-H187
  IC50: > 5.12 µM
NCI-H345
  IC50: > 5.12 µM
NCI-H524
  IC50: 1.03 µM
RL95-2
  IC50: 0.605 µM
RPMI-6666
  IC50: > 5.12 µM
SCLC-21H
  IC50: 2.83 µM
SIG-M5
  IC50: 2.77 µM
ARH-77
  IC50: 3.54 µM
BC1 cell line
  IC50: > 5.12 µM
BC-3
  IC50: 2.19 µM
TE-15
  IC50: 1.02 µM
CMK
  IC50: 1.56 µM
